Reference: patent US20060135415A1, “Immunomodulation and effect on cell processes relating to serotonin family receptors and the blood-brain barrier” (priority 2002, published 2006)
Entries after “also recorded” stand apart in the source; their conditions may differ.

Tests used:
[1] = system: ConA stimulated human lymphocytes; assay: Human mitogenic (ConA) stimulation, 3H-thymidine incorporation; format: cell-based; details: for activation / proliferative response: 5 μg/ml ConA, harvest 72 hours, drug titration (FIGS. 7A, 8A, 9A, 17, 33)
Experimental: Blood from healthy volunteers was drawn using venipuncture, using Vacutainer collection sets and heparinized collection vials. The blood was diluted 1:1 using HBSS to a total volume of 30 ml in 50 ml conical tubes (Fisher Scientific, Co., Pittsburgh, Pa.). […] Cells from the buffy coats were collected and the residual Histopaque was washed away using repeated centrifugations in HBSS. After washes, cells were resuspended at 5 million cells per ml in RPMI, supplemented with 2% FBS. To remove adherent cells, the suspension was plated onto a 6 well flat-bottom plate (Corning Costar), 3 ml/well, and incubated for 2 hours at 37° C., 5% CO2. Non-adherent cells were harvested after this incubation, were counted and resuspended in RPMI supplemented with 10% human serum (Sigma).
All drugs were pre-plated before the cell suspension was added onto each well of a 96-well round-bottom plate. All experimental conditions were assayed in at least triplicate. Cells suspended in RPMI supplemented with 10% human serum were plated at 100,000 cells per well to a final volume of 200 μl. […] Control samples received no ConA stimulation. The plates were incubated at 37° C. and 5% CO2.

[2] = system: RPMI 8226 cells; assay: DNA fragmentation (internucleosomal laddering); format: cell-based, human; details: RPMI 8226 cells (FIGS. 26, 35)
Experimental: Cells (8×10^5) were washed with ice-cold PBS following experimental treatments and pelleted by centrifugation (500×g, 5 min). Cell pellets were incubated for 5 minutes on ice in lysis buffer (1% IGEPAL-CA630, 20 mM EDTA, 50 mM Tris-HCL, pH 7.5). Lysates were centrifuged at about 1,600×g for 5 minutes. 501 μL of lysis buffer was added to the supernatant. The extract was brought to 1% SDS and treated for 2 hours with 5 μg/μL Rnase A (57° C.) followed by treatment with 2.5 μg/μL proteinase K for 2 hours (37° C.). After digestion of RNA and protein, half volume of 10 M ammonium acetate was added and the DNA was precipitated using 2.5 volumes of ethanol, washed in 70% ethanol, air-dried, and dissolved in TE buffer. DNA fragments were separated by electrophoresis in 1.5% agarose gels using a protocol adapted from Siegel et al. (1998, Proc. Natl. Acad. Sci. USA 95:162-166).

[3] = system: RPMI 8226 cells; assay: Annexin V / propidium iodide flow cytometry; format: cell-based, human; details: RPMI 8226 cells (FIGS. 27, 34)
Experimental: Early apoptotic cells were detected by co-staining cells previously exposed to each experimental condition. Briefly, cells were incubated during a time course in the presence of various concentrations of each experimental or control apoptosis inducing agent as set forth elsewhere herein. After incubation, the cells were washed with ice-cold PBS, stained with Annexin V-Alexa flour 488 and Propidium Iodide (Molecular Probes, Eugene, Oreg.) and analyzed by dual-color flow cytometry. Annexin V^+ and PI^− cells were considered as early apoptotic cells. The known terminal differentiator of myeloma cells, HMBA (hexamethylene-bis-acetamide), and the topoisomerase inhibitor, camtothecin, were used as positive controls for apoptosis at 5 mM and 2 μM, respectively.
Therefore, the degree of apoptosis in a cell population can be ascertained by assessing the presence of annexin-V positive cells and the absence of propidium iodide (PI) staining cells (necrotic cells). […] The extent of apoptosis was determined by analyzing flow cytometry data and generating FACS plots, which were then gated to include only the population of cells which were PI negative (non-necrotic). The degree of annexin-V positive cells was then measured in this PI negative cell population as a measure of apoptosis (FIG. 34).

[4] = In vivo screen for sedation / CNS effects after i.v. injection; design: species or system BALB/c mice
Experimental: Both QSS5 and QSS6 were assayed in vivo for the immediate ‘sleep’ effect.

[5] = system: Chronic Lymphocytic Leukemia tumor cells; assay: Ex planted bone marrow aspirates from a CLL patient; format: cell-based, human
[6] = molecular target: T1, human 5HT2C-INI receptor (Homo sapiens, UniProt P28335); details: HEK-293 cells, data from Rauser et al. 2001 (FIG. 38); cited from earlier work
T1 sequence (P28335 33-458): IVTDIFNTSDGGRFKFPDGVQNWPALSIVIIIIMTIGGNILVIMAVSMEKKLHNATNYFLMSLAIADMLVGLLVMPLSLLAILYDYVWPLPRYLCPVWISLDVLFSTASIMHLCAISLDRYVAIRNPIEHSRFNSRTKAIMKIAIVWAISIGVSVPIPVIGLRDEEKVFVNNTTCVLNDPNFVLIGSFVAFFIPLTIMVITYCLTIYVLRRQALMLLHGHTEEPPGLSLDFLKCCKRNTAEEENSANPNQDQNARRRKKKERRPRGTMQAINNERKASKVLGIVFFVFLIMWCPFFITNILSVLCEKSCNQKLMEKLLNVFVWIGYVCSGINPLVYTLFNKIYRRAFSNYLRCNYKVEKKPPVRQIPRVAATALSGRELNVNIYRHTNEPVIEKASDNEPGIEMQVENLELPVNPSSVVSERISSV

[7] = system: allogeneic stimulation of human lymphocytes; assay: Human mixed lymphocyte reaction (allogeneic stimulation), 3H-thymidine; format: cell-based
Excerpt: Blood from two healthy, non-related, donors was taken as described above. Peripheral blood mononuclear cells were isolated as described previously elsewhere. The adherent cells were separated from the suspension cells as described previously for both donors. Suspension cells from both donors (donors A and B) were used as responders. The remaining adherent cells from each of the donors were used as stimulators against a different donor (suspension A against adherent B and adherent A against suspension B). The stimulator cells were irradiated at 35 Gy. Drugs were pre-plated onto 96 well, U-bottom plates in triplicate. 200,000 “stimulator” cells in RPMI supplemented with 10% human serum were then plated in each well. 200,000 “responder” cells in the same medium were then plated over stimulators to a final volume of 200 μl/well. Background controls received either no stimulator cells, or no responder cells. The plates were incubated at 37° C. and 5% CO2. 1 μCi of tritiated thymidine was added to each well after 4.5 days, and the plates were harvested 12 hours later.

[8] = system: RPMI 8226 multiple myeloma cells; assay: RPMI 8226 cell viability and proliferation (trypan blue, MTT, 3H-thymidine); format: cell-based, human; details: 3H-thymidine uptake, drug titration (FIGS. 19-25, 31, 32)
Experimental: The human plasmacytoma (multiple myeloma) cell line, RPMI 8226 (American Type Culture Collection, Manassas, Va.), was cultured in RPMI 1640 supplemented with 10 mM HEPES, 1 mM sodium pyruvate, 4.5 g/L glucose, 1.5 g/L bicarbonate and 20% FBS (non-heat inactivated).
Cell proliferation was assayed by three methods—Trypan Blue Exclusion was used to quantify the number of viable cells in culture; 3-(4,5-dimethylthiazol-2-yl)-2,5-diphenyl tetrazolium bromide (MTT) reduction was used to assay mitochondrial activity (and thus cell viability); and ^3H-Thymidine uptake was employed to assay for active DNA synthesis.
Three separate indicators of cell proliferation were employed to study the effects of 5-HT receptor modulating agents on the human multiple myeloma cell line, RPMI 8226. Cells were plated at 4 separate densities and were treated with LY53587 (an antagonist of the 5-HT2A/2B/2C receptors) at a range of concentrations. The exclusion of trypan blue dye was used as an indicator of cell viability. Cell numbers were then plotted against the concentration of drug added.
MTT reduction was also used as an indicator of cell viability (more specifically, mitochondrial activity). Absorbance values at OD570 were then plotted against drug concentration. Finally, DNA synthesis was assayed, through the measurement of ^3H-thymidine uptake, and counts per minute (CPMs) were plotted against drug concentration.
Culturing and administration of drugs and ^3H-thymidine were performed as described elsewhere herein.

[9] = system: RPMI-8226 cells; assay: Cytospin histochemistry (H&E, bis-benzamide) for chromatin; format: cell-based, human; details: 9 hour treatments; 50 μM SB compounds, 2 μM camptothecin (FIGS. 28, 29)
Experimental: 2.0×10^5 RPMI-8226 cells were cultured, in 6-well culture plates, in the presence of the indicated drug concentrations, in a total of 5 mL RPMI-1640 supplemented with 10% FBS. Each well was harvested in its entirety and divided into two identical samples for cytospins.
1.0×10^5 RPMI-8226 cells from each treatment group were loaded into Cyto-funnels and centrifuged at 500 rpm for 4 minutes with medium acceleration. Slides were then fixed through graded methanol in PBS (100%, 5 minutes; 80%, 5 minutes; 50%, 5 minutes), washed for 5 minutes in PBS and stored in PBS at 4° C. until stained.
Cytospun slides were stained with Hematoxylin and Eosin, followed by the nuclear stain, bis-benzamide, rinsed and mounted according to standard staining protocols. Slides were visualized under both brightfield and fluorescent light to generate matched images of the same slide field (see, e.g., FIGS. 28 and 29).

[10] = system: cells; assay: Cell morphology change on inhibition of serotonergic signalling; format: cell-based; details: after 24 hours of treatment (FIG. 30)
Experimental: Briefly, cells were incubated with a 5-HTR antagonist (e.g., a selective type 1B inhibitor SD 216641) and the effects of treatment were assessed after 24 hours. […] For instance, detection of cell changes can be assessed using optical instruments (electron and light microscopy, as well as fluorescence activated cell sorting, and the like), or any other device that assesses and detects changes in cell size, density, morphology, and the like. Such devices are well known in the art and are not recounted here.

[11] = system: AKT; assay: Western blot of phospho-(ser473)-AKT; format: cell-based, human; details: RPMI-8226 cells, 0, 6.25, 12.5, 25 μM for 3 hours (FIG. 37)
Experimental: 5×10^6 cells RPMI-8226 cells were treated with 0, 6.25, 12.5, and 25 μM SB216641 for 3 hours. Cells were lysed in lysis buffer (1% IGEPAL CA-635, 150 mM NaCl, 20 mM Tris-Cl pH 7.4, 1 mM PMSF, 1 mM EGTA, 1 mM NaF, 1 μg/mL aprotinin, 10 μg/mL leupeptin, 1 mM Na2OVa, 5 mM BGP) on ice for 15 minutes followed by centrifugation for 10 min to clear the lysate of membrane fragment. Supernatants were collected and protein concentrations determined with the BioRad Detergent Compatible Kit (Hercules, Calif.).
One-hundred micrograms of protein were loaded into each lane and separated through a 4% SDS-PAGE stacking gel and a 12% SDS-PAGE resolving gel. Proteins were electro-transferred to a 0.2 μm nitrocellulose membrane in transfer buffer (25 mM Tris, 192 mM glycine, 20% methanol, 0.1% SDS). Membranes were immuno-blotted with an anti-phosphoAkt antibody (New England Biolabs, Beverly, Mass.) to the serine-473 phosphorylation residue required for AKT activation and any antibody bound was visualized using an enhanced chemiluminescent system.

Row | IC50 ([1]; ConA stimulation, read-out: apparent IC50) | IC50 ([7]; allogeneic stimuli (weaker signal strength), read-out: apparent IC50) | Structure (SMILES) | activation / proliferative response [1] | in vitro activation / proliferation of (helper) T cells ([1]; in vitro) | DNA laddering [2] | apoptosis, annexin-V positive / PI negative cells [3] | duration of sleep ([4]; 15 mg/kg i.v. tail vein, BALB/c mice) | sedation / abnormal behavior ([4]; 15 mg/kg i.v. tail vein, BALB/c mice, observed over 72 hour period) | sedative effect ([4]; intravenous injection in an animal) | tumor cell burden [5] | inverse agonism / inhibition of 5-HT 2C receptor [6] | activation / proliferative response ([7]; allogeneic stimulation, harvest 120 hours, drug titration (FIGS. 7B, 8B, 9B)) | growth / proliferation of RPMI 8226 cells [8] | chromatin condensation / fragmentation (apoptosis) [9] | change in cell morphology [10] | phospho-(ser473)-AKT level [11] | phospho-(ser473)-AKT level ([11]; listed as SB216641)
1 |  |  | OCCN1CCN(CCCN2c3ccccc3Sc3ccc(C(F)(F)F)cc32)CC1 [Fluphenazine] | dramatic and dose-dependent decrease in proliferation | inhibits T cell responses | increase in DNA laddering over control cell extracts | significantly greater degree of apoptosis than any of the control cell populations | approximately 10 hours | instantly sedated | strong sedative, inducing sleep in an animal before the needle is withdrawn from the vein | reduces the tumor cell burden | potent inverse agonist; also recorded: effective inhibitor (inverse agonist) |  |  |  |  |  | 
2 | ~200 nM | ~50 nM | COc1ccc(NC(=O)c2ccc(-c3ccc(-c4noc(C)n4)cc3C)cc2)cc1OCCN(C)C [SB 216641] | complete inhibition of the activation response |  | increase in DNA laddering over control cell extracts |  |  |  |  |  |  | complete inhibition of the activation response | completely inhibited the growth of the cancer cells | Extensive chromatin condensation and nuclear fragmentation; also recorded: induced programmed cell death comparable to that induced by the topoisomerase I inhibitor, camptothecin | an increase in cell size | down-regulates the activity of AKT | dose dependant decrease in phosphor-(ser473)-AKT
